Assay results from ChEMBL document CHEMBL3124779, “Discovery of ABT-267, a pan-genotypic inhibitor of HCV NS5A” (J Med Chem, 2014).
Converted amounts (≈) assume the structure as drawn.

Key:
[1] = Metabolic stability in rat liver microsomes assessed as compound remaining after 30 mins; type: ADME; details: read-out: Stability
[2] = Kinetic solubility of the compound in 10 mM of phosphate buffer at pH 7.2 by CLND method; type: physicochemical; details: read-out: Kinetic_solubility
Hepatitis C virus [3] = experiment: Ratio of EC50 for HCV1b Con1 infected in human HuH7 cells in presence of 40% human plasma to EC50 for HCV1b Con1 infected in human HuH7 cells in absence of 40% human plasma; type: functional, Hepacivirus hominis, isolate Con1, Huh-7
Hepatitis C virus [4] = experiment: Antiviral activity against HCV1b Con1 infected in human HuH7 cells assessed as inhibition of viral replication after 4 days by luciferase reporter gene assay in presence of 40% human plasma; type: functional, organism-based, Hepacivirus hominis; details: isolate Con1, Huh-7, Plasma, 96 h
[5] = Metabolic stability in human liver microsomes assessed as compound remaining after 30 mins; type: ADME; details: read-out: Stability
Hepatitis C virus [6] = experiment: Antiviral activity against HCV1a H77 infected in human HuH7 cells assessed as inhibition of viral replication after 4 days by luciferase reporter gene assay in presence of 40% human plasma; type: functional, organism-based, Hepacivirus hominis; details: genotype 1a H77, Huh-7, Plasma, 96 h
[7] = Cmax in rat at 3 mg/kg, po; type: ADME, organism-based; set-up: dose 3 mg/kg, route oral; details: in vivo
Hepatitis C virus [8] = experiment: Antiviral activity against HCV1b Con1 infected in human HuH7 cells assessed as inhibition of viral replication after 4 days by luciferase reporter gene assay; type: functional, organism-based, Hepacivirus hominis; details: isolate Con1, Huh-7, 96 h
Hepatitis C virus [9] = experiment: Ratio of EC50 for HCV1a H77 infected in human HuH7 cells in presence of 40% human plasma to EC50 for HCV1a H77 infected in human HuH7 cells in absence of 40% human plasma; type: functional, Hepacivirus hominis, genotype 1a H77, Huh-7
[10] = Oral bioavailability in rat at 3 mg/kg; type: ADME, organism-based; details: in vivo
Hepatitis C virus [11] = experiment: Antiviral activity against HCV1a H77 infected in human HuH7 cells assessed as inhibition of viral replication after 4 days by luciferase reporter gene assay; type: functional, organism-based, Hepacivirus hominis; details: genotype 1a H77, Huh-7, 96 h
[12] = Clearance in rat at 3 mg/kg, iv; type: ADME, organism-based; set-up: dose 3 mg/kg, route intravenous; details: in vivo
[13] = Lipophilicity, log D of the compound at pH 7.4 by HPLC analysis; type: physicochemical; details: buffer
[14] = Tmax in rat at 3 mg/kg, po; type: ADME, organism-based; set-up: dose 3 mg/kg, route oral; details: in vivo
[15] = AUC in rat at 3 mg/kg, po; type: ADME, organism-based; set-up: dose 3 mg/kg, route oral; details: plasma
[16] = Half life in rat at 3 mg/kg, po; type: ADME, organism-based; set-up: dose 3 mg/kg, route oral; details: in vivo
[17] = Volume of distribution at steady state in rat at 3 mg/kg, iv; type: ADME, organism-based; set-up: dose 3 mg/kg, route intravenous; details: in vivo, read-out: Vdss
[18] = Half life in rat at 3 mg/kg, iv; type: ADME, organism-based; set-up: dose 3 mg/kg, route intravenous; details: in vivo

COC(=O)N[C@H](C(=O)N1CCC[C@H]1C(=O)Nc1ccc([C@@H]2CC[C@@H](c3ccc(NC(=O)[C@@H]4CCCN4C(=O)[C@@H](NC(=O)OC)C(C)(C)C)cc3)N2c2ccc(F)cc2)cc1)C(C)(C)C
remaining at 0.5 h [1]: 56%
solubility kinetic [2]: 4.4 µM (≈ 3.89 µg/mL)
Ratio EC50 (Hepatitis C virus [3]): 88
EC50 (Hepatitis C virus [4]): 0.528 nM
remaining at 0.5 h [5]: 52%
EC50 (Hepatitis C virus [6]): 15.5 nM
Cmax [7]: 110 ng/mL
EC50 (Hepatitis C virus [8]): 0.006 nM
Ratio EC50 (Hepatitis C virus [9]): 59
bioavailability [10]: 23%
EC50 (Hepatitis C virus [11]): 0.263 nM
clearance [12]: < 6.5 mL/min/kg
logD [13]: 5.2
Tmax [14]: 3 h
AUC [15]: 1850 ng·h/mL

COC(=O)N[C@H](C(=O)N1CCC[C@H]1C(=O)Nc1ccc([C@@H]2CC[C@@H](c3ccc(NC(=O)[C@@H]4CCCN4C(=O)[C@@H](NC(=O)OC)[C@@H](C)OC)cc3)N2c2ccc(F)cc2)cc1)[C@@H](C)OC
remaining at 0.5 h [1]: 47%
solubility kinetic [2]: 9.6 µM (≈ 8.52 µg/mL)
Ratio EC50 (Hepatitis C virus [3]): 6
EC50 (Hepatitis C virus [4]): 0.539 nM
remaining at 0.5 h [5]: 54%
EC50 (Hepatitis C virus [6]): 1.4 nM
Cmax [7]: 70 ng/mL
half-life [16]: 1.1 h
EC50 (Hepatitis C virus [8]): 0.086 nM
Ratio EC50 (Hepatitis C virus [9]): 8
bioavailability [10]: 14%
Vd [17]: 1.3 L/kg
EC50 (Hepatitis C virus [11]): 0.168 nM
clearance [12]: 56.7 mL/min/kg
half-life [18]: 0.6 h
logD [13]: 3
Tmax [14]: 0.7 h
AUC [15]: 120 ng·h/mL

COC(=O)N[C@H](C(=O)N1CCC[C@H]1C(=O)Nc1ccc([C@H]2CC[C@H](c3ccc(NC(=O)[C@@H]4CCCN4C(=O)[C@@H](NC(=O)OC)[C@@H](C)OC)cc3)N2c2ccc(F)cc2)cc1)[C@@H](C)OC
remaining at 0.5 h [1]: 46%
solubility kinetic [2]: 7.7 µM (≈ 6.84 µg/mL)
Ratio EC50 (Hepatitis C virus [3]): 10
EC50 (Hepatitis C virus [4]): 1.33 nM
remaining at 0.5 h [5]: 48%
EC50 (Hepatitis C virus [6]): 1.95 nM
Cmax [7]: 120 ng/mL
half-life [16]: 0.9 h
EC50 (Hepatitis C virus [8]): 0.134 nM
Ratio EC50 (Hepatitis C virus [9]): 2
bioavailability [10]: 15%
Vd [17]: 0.9 L/kg
EC50 (Hepatitis C virus [11]): 0.794 nM
clearance [12]: 45 mL/min/kg
half-life [18]: 0.4 h
logD [13]: 3
Tmax [14]: 0.5 h
AUC [15]: 170 ng·h/mL

COC(=O)N[C@H](C(=O)N1CCC[C@H]1C(=O)Nc1ccc([C@@H]2CC[C@@H](c3ccc(NC(=O)[C@@H]4CCCN4C(=O)[C@@H](NC(=O)OC)[C@H]4CCOC4)cc3)N2c2ccc(F)cc2)cc1)[C@H]1CCOC1
remaining at 0.5 h [1]: 42%
solubility kinetic [2]: 9.7 µM (≈ 8.85 µg/mL)
Ratio EC50 (Hepatitis C virus [3]): 24
EC50 (Hepatitis C virus [4]): 1.27 nM
remaining at 0.5 h [5]: 41%
EC50 (Hepatitis C virus [6]): 1.39 nM
Cmax [7]: 20 ng/mL
half-life [16]: 0.6 h
EC50 (Hepatitis C virus [8]): 0.054 nM
Ratio EC50 (Hepatitis C virus [9]): 14
bioavailability [10]: 1.5%
Vd [17]: 0.5 L/kg
EC50 (Hepatitis C virus [11]): 0.102 nM
clearance [12]: 31.7 mL/min/kg
half-life [18]: 0.9 h
logD [13]: 3.2
Tmax [14]: 0.4 h
AUC [15]: 20 ng·h/mL

COC(=O)N[C@H](C(=O)N1CCC[C@H]1C(=O)Nc1ccc([C@H]2CC[C@H](c3ccc(NC(=O)[C@@H]4CCCN4C(=O)[C@@H](NC(=O)OC)[C@H]4CCOC4)cc3)N2c2ccc(F)cc2)cc1)[C@H]1CCOC1
remaining at 0.5 h [1]: 46%
solubility kinetic [2]: 8.5 µM (≈ 7.75 µg/mL)
Ratio EC50 (Hepatitis C virus [3]): 9
EC50 (Hepatitis C virus [4]): 0.917 nM
remaining at 0.5 h [5]: 47%
EC50 (Hepatitis C virus [6]): 1.92 nM
Cmax [7]: 30 ng/mL
half-life [16]: 0.5 h
EC50 (Hepatitis C virus [8]): 0.106 nM
Ratio EC50 (Hepatitis C virus [9]): 7
bioavailability [10]: 3.2%
Vd [17]: 1.5 L/kg
EC50 (Hepatitis C virus [11]): 0.281 nM
clearance [12]: 66.7 mL/min/kg
half-life [18]: 0.8 h
logD [13]: 3.2
Tmax [14]: 0.3 h
AUC [15]: 20 ng·h/mL

COC(=O)N[C@H](C(=O)N1CCC[C@H]1C(=O)Nc1ccc([C@H]2CC[C@H](c3ccc(NC(=O)[C@@H]4CCCN4C(=O)[C@@H](NC(=O)OC)C(C)C)cc3)N2c2ccc(C(C)(C)C)cc2)cc1)C(C)C
remaining at 0.5 h [1]: 65%
solubility kinetic [2]: 1.8 µM (≈ 1.61 µg/mL)
Ratio EC50 (Hepatitis C virus [3]): 10
EC50 (Hepatitis C virus [4]): 0.09 nM
EC50 (Hepatitis C virus [6]): 0.986 nM
Cmax [7]: 20 ng/mL
half-life [16]: 8.6 h
EC50 (Hepatitis C virus [8]): 0.0088 nM
Ratio EC50 (Hepatitis C virus [9]): 7
bioavailability [10]: 3.1%
Vd [17]: 2.2 L/kg
EC50 (Hepatitis C virus [11]): 0.138 nM
clearance [12]: 7.17 mL/min/kg
half-life [18]: 5.5 h
logD [13]: 5.2
Tmax [14]: 4.7 h
AUC [15]: 220 ng·h/mL

COC(=O)N[C@H](C(=O)N1CCC[C@H]1C(=O)Nc1ccc([C@@H]2CC[C@@H](c3ccc(NC(=O)[C@@H]4CCCN4C(=O)[C@@H](NC(=O)OC)C(C)(C)C)cc3)N2c2ccc(C(C)(C)C)cc2)cc1)C(C)(C)C
remaining at 0.5 h [1]: 87%
solubility kinetic [2]: 1.2 µM (≈ 1.11 µg/mL)
EC50 (Hepatitis C virus [4]): 0.117 nM
remaining at 0.5 h [5]: 78%
EC50 (Hepatitis C virus [6]): 1.06 nM
Cmax [7]: 90 ng/mL
half-life [16]: 11 h
EC50 (Hepatitis C virus [8]): 0.0022 nM
bioavailability [10]: 7.2%
Vd [17]: 2.3 L/kg
EC50 (Hepatitis C virus [11]): 0.021 nM
clearance [12]: 2.83 mL/min/kg
half-life [18]: 8.2 h
Tmax [14]: 5.3 h
AUC [15]: 1250 ng·h/mL

COC(=O)N[C@H](C(=O)N1CCC[C@H]1C(=O)Nc1ccc([C@H]2CC[C@H](c3ccc(NC(=O)[C@@H]4CCCN4C(=O)[C@@H](NC(=O)OC)C(C)(C)C)cc3)N2c2ccc(C(C)(C)C)cc2)cc1)C(C)(C)C
remaining at 0.5 h [1]: 83%
solubility kinetic [2]: 2.2 µM (≈ 2.03 µg/mL)
EC50 (Hepatitis C virus [4]): 0.344 nM
remaining at 0.5 h [5]: 80%
EC50 (Hepatitis C virus [6]): 4.31 nM
Cmax [7]: 90 ng/mL
half-life [16]: 12.4 h
EC50 (Hepatitis C virus [8]): 0.0084 nM
bioavailability [10]: 7.2%
Vd [17]: 1.7 L/kg
EC50 (Hepatitis C virus [11]): 0.123 nM
clearance [12]: 2.83 mL/min/kg
half-life [18]: 10.2 h
Tmax [14]: 2.5 h
AUC [15]: 1390 ng·h/mL

COC(=O)N[C@H](C(=O)N1CCC[C@H]1C(=O)Nc1ccc([C@@H]2CC[C@@H](c3ccc(NC(=O)[C@@H]4CCCN4C(=O)[C@@H](NC(=O)OC)C(C)C)cc3)N2c2ccc(F)cc2)cc1)C(C)C
remaining at 0.5 h [1]: 49%
solubility kinetic [2]: 4.1 µM (≈ 3.51 µg/mL)
Ratio EC50 (Hepatitis C virus [3]): 15
EC50 (Hepatitis C virus [4]): 0.184 nM
remaining at 0.5 h [5]: 44%
EC50 (Hepatitis C virus [6]): 3.68 nM
Cmax [7]: 190 ng/mL
half-life [16]: 3 h
EC50 (Hepatitis C virus [8]): 0.012 nM
Ratio EC50 (Hepatitis C virus [9]): 9
bioavailability [10]: 22%
Vd [17]: 2.4 L/kg
EC50 (Hepatitis C virus [11]): 0.396 nM
clearance [12]: 15 mL/min/kg
half-life [18]: 2.6 h
logD [13]: 4.6
Tmax [14]: 1 h
AUC [15]: 750 ng·h/mL

CC[C@H](C)[C@H](NC(=O)OC)C(=O)N1CCC[C@H]1C(=O)Nc1ccc([C@@H]2CC[C@@H](c3ccc(NC(=O)[C@@H]4CCCN4C(=O)[C@@H](NC(=O)OC)[C@@H](C)CC)cc3)N2c2ccc(F)cc2)cc1 (mixture of isomers)
Ratio EC50 (Hepatitis C virus [3]): 6
EC50 (Hepatitis C virus [4]): 0.171 nM
EC50 (Hepatitis C virus [6]): 9.79 nM
EC50 (Hepatitis C virus [8]): 0.03 nM
Ratio EC50 (Hepatitis C virus [9]): 7
EC50 (Hepatitis C virus [11]): 1.31 nM

CC[C@@H](C)[C@H](NC(=O)OC)C(=O)N1CCC[C@H]1C(=O)Nc1ccc([C@@H]2CC[C@@H](c3ccc(NC(=O)[C@@H]4CCCN4C(=O)[C@@H](NC(=O)OC)[C@H](C)CC)cc3)N2c2ccc(F)cc2)cc1 (mixture of isomers)
Ratio EC50 (Hepatitis C virus [3]): 9
EC50 (Hepatitis C virus [4]): 0.09 nM
EC50 (Hepatitis C virus [6]): 6.56 nM
EC50 (Hepatitis C virus [8]): 0.01 nM
Ratio EC50 (Hepatitis C virus [9]): 32
EC50 (Hepatitis C virus [11]): 0.202 nM

COC(=O)N[C@H](C(=O)N1CCC[C@H]1C(=O)Nc1ccc([C@@H]2CC[C@@H](c3ccc(NC(=O)[C@@H]4CCCN4C(=O)[C@@H](NC(=O)OC)C(C)C)cc3)N2c2ccc(C)cc2)cc1)C(C)C (mixture of isomers)
Ratio EC50 (Hepatitis C virus [3]): 5
EC50 (Hepatitis C virus [4]): 0.204 nM
EC50 (Hepatitis C virus [6]): 4.36 nM
EC50 (Hepatitis C virus [8]): 0.04 nM
Ratio EC50 (Hepatitis C virus [9]): 6
EC50 (Hepatitis C virus [11]): 0.72 nM
